For `CCCCn1c(N)c(NCc2ccccc2OC)c(=O)[nH]c1=O`, the melting point was 198 to 200 °C.
`O=C(NCCCc1ccccc1)c1ccccc1O` showed a melting point of 77 to 79 °C.
Work on `Cc1nn2c(=O)cc(CCl)nc2s1` yielded a melting point of 210 to 212 °C.
With `O=C(O)C=Cc1cn(-c2ccccc2)nc1-c1ccccc1` the melting point was 207 to 209 °C.
For `O=C(Nc1ccc(S(=O)(=O)Cl)cc1)C(F)(F)F`, the melting point was 152 to 154 °C.
With `Cc1nn(-c2ccc(Br)cc2)c(C)c1C=O` the melting point was 142 to 144 °C.
For `O=[N+]([O-])c1cc(Cl)cc(Br)c1O`, the melting point was 126 to 128 °C.
`COC(=O)c1ccc(NS(=O)(=O)c2ccc(C)cc2)cc1` showed a melting point of 150 to 152 °C.
`O=[N+]([O-])c1cccc(-c2cn[nH]c2)c1` showed a melting point of 154 to 156 °C.
With `CC(C)(C)OC(=O)NCc1ccc(C(=O)O)c(C2CC2)n1` the melting point was 144 to 146 °C.
In the case of `Nc1ccc(Oc2cc(Cl)ccc2Cl)c(F)c1`, the melting point is reported as 62 to 64 °C.
Compound `Nc1ccc([N+](=O)[O-])c(Br)c1` has a melting point of 169 to 171 °C.
Compound `O=C(O)c1c[nH]c2cc(F)ccc12` has a melting point of 228 to 230 °C.
For `Cc1ccc(-c2nnc(S)o2)cc1`, the melting point was 266 to 268 °C.
`Cc1cc(C(=O)O)c(C)n1-c1cccnc1` showed a melting point of 192 to 194 °C.
With `O=[N+]([O-])c1ccc(Cc2nnn[nH]2)cc1` the melting point was 178 to 180 °C.
Compound `Cc1cc(C(=O)O)c2c(-c3ccco3)noc2n1` has a melting point of 232 to 234 °C.
For `O=C(O)C1(c2ccc(Cl)c(Cl)c2)CCC1`, the melting point was 116 to 118 °C.
`Cn1c(C(=O)O)c(Br)c2ccccc21` showed a melting point of 204 to 206 °C.
Work on `COC(=O)c1ccc(Br)s1` yielded a melting point of 60 to 62 °C.
Compound `CC1CC(C)CN(c2nnc(S)n2Cc2ccco2)C1` (stereo unspecified) has a melting point of 119 to 121 °C.
Compound `CC(C)(C)OC(=O)N1CCc2ccc(O)cc2C1` has a melting point of 134 to 136 °C.
`Sc1nc2cc(Cl)ccc2o1` showed a melting point of 277 to 279 °C.
`CCC(CC)n1ccc(C(=O)O)n1` gave a melting point of 68 to 70 °C.
With `COc1ccc(/C=C/C(=O)O)cc1S(=O)(=O)N(C)C` the melting point was 229 to 231 °C.
`O=C(O)C=CC1CCC=CO1` (stereo unspecified) gave a melting point of 81 to 83 °C.
In the case of `CCOC(=O)c1c(N)sc(C)c1CC(C)CC` (stereo unspecified), the melting point is reported as 77 to 79 °C.
Compound `Cn1cn[nH]c1=O` has a melting point of 134 to 136 °C.
`O=C(O)C1CCN(C(=O)c2ccc(Br)cc2)CC1` gave a melting point of 202 to 204 °C.
With `CCOc1ccc(OCC2CO2)cc1` (stereo unspecified) the melting point was 53 to 55 °C.
For `O=C1C=CC(=O)N1CCc1ccc([N+](=O)[O-])cc1`, the melting point was 61 to 63 °C.
`CC(C)c1noc(N)n1` gave a melting point of 101 to 103 °C.
In the case of `N#Cc1cccc(C2(C(=O)O)CC2)c1`, the melting point is reported as 182 to 184 °C.
Compound `Cc1ccc(-c2ncco2)cc1N` has a melting point of 89 to 91 °C.
In the case of `OCCNc1ccccn1`, the melting point is reported as 64 to 66 °C.
Compound `Cc1cc(N)ccc1NC(=O)c1ccco1` has a melting point of 173 to 175 °C.
Compound `Cc1nc(COc2ccc(C(=O)O)cc2)cs1` has a melting point of 196 to 198 °C.
In the case of `Cc1ccc(O)c(S(=O)(=O)N(C)C)c1`, the melting point is reported as 76 to 78 °C.
In the case of `O=C(O)c1cccn2cc(CN3CCCC3)nc12`, the melting point is reported as 264 to 266 °C.
`O=C(Nc1ccccc1)C(Cl)C(=O)c1ccccc1` (stereo unspecified) gave a melting point of 113 to 115 °C.
`CCOc1ccc(N2C(=O)c3ccc(C(=O)O)cc3C2=O)cc1` showed a melting point of 265 to 267 °C.
Work on `O=C(O)c1cccnc1S(=O)(=O)C(F)(F)F` yielded a melting point of 126 to 128 °C.
In the case of `Cn1cncc1CO`, the melting point is reported as 112 to 114 °C.
`CCC(=O)c1ccc(Oc2ccccc2)cc1` gave a melting point of 39 to 41 °C.
Work on `Cc1ccc(S(=O)(=O)C2(C(=O)O)CCC2)cc1` yielded a melting point of 105 to 107 °C.
In the case of `Cc1ccc(NS(=O)(=O)c2cc([N+](=O)[O-])ccc2NN)c(C)c1`, the melting point is reported as 165 to 167 °C.
Compound `CCOC(=O)c1sc(-c2ccc(Cl)cc2Cl)cc1N` has a melting point of 100 to 102 °C.
`O=C(O)CNS(=O)(=O)c1ccc(F)c(F)c1F` showed a melting point of 175 to 177 °C.
For `NNC(=O)Nc1ccc(Cl)cc1Cl`, the melting point was 153 to 155 °C.
In the case of `O=C(O)c1nn(-c2ccc(F)cc2F)cc1O`, the melting point is reported as 203 to 205 °C.
With `CC(C)(C)OC(=O)Nc1ccc(C(F)(F)F)cc1N` the melting point was 140 to 142 °C.

Reference: a melting point compilation (Tetko et al.)
